This is an account of results in US12564638B2 (SHANGHAITECH UNIVERSITY, priority 2019, dated 2026).

Where two headings read alike, the source gives them in different places.

Common to all, as to type: cell-based
Assay [1] deals with HCC827 cells (EGFR Exon19 del, non-small cell lung cancer cells). Description: Cell viability assay (WST/CCK8), HCC827 cells. The conditions noted are these: Homo sapiens, HCC827, 72 h, HCC827 (Exon19 Del), 72 hours, read-out: IC50 (half inhibitory concentration). The method, boiled down:
(§1)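 Cells seeded at 3 000/well in RPMI1640 complete medium, dosed next day with compounds (top 10 μM, 3-fold, 10 points) for 72 h. Viability read with WST (CCK8) reagent; DMSO as negative control, EGFR TKIs as positive controls; IC50 determined.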

For assay [2], the system named is PC9 cells (EGFR Exon 19 del, non-small cell lung cancer cells). Description: Cell viability assay (WST/CCK8), PC9 cells. The conditions noted are these: Homo sapiens, PC-9, PC9 (Exon19 Del), 72 hours, read-out: IC50 (half inhibitory concentration). The essentials:
as §1

Assay [3] deals with H1975 (EGFR T790M+L858R mutation, non-small cell lung cancer cell line). The assay can be described thus: Cell viability assay (WST/CCK8), H1975 cells. The note with it: Homo sapiens, NCI-H1975, H1975 (L858R + T790M), read-out: IC50 (half inhibitory concentration). The method, boiled down: (§2)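 Cells seeded at 3 000 per well in RPMI1640 complete medium, dosed next day with compounds at indicated concentrations (DMSO negative control, EGFR TKIs as positive control).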

The test system of assay [4] is PC9BracA1 (EGFR Exon 19 del+T790M, non-small cell lung cancer cells). Description: Cell viability assay (WST/CCK8), PC9Brac1 cells. The conditions noted are these: read-out: IC50 (half inhibitory concentration). The essentials: as §2
Assay [5] deals with EGFR (Exon 19del) in HCC827 cells (Homo sapiens, UniProt P00533, DEL746-750). Description: Western blot of EGFR protein level (degradation), HCC827 cells. The conditions noted are these: HCC827 cells, 1, 10, 50, 100, 500 nM, 16 hours.
EGFR (Exon 19del) in HCC827 cells, sequence (P00533 with tags, fused parts or gaps DEL746-750): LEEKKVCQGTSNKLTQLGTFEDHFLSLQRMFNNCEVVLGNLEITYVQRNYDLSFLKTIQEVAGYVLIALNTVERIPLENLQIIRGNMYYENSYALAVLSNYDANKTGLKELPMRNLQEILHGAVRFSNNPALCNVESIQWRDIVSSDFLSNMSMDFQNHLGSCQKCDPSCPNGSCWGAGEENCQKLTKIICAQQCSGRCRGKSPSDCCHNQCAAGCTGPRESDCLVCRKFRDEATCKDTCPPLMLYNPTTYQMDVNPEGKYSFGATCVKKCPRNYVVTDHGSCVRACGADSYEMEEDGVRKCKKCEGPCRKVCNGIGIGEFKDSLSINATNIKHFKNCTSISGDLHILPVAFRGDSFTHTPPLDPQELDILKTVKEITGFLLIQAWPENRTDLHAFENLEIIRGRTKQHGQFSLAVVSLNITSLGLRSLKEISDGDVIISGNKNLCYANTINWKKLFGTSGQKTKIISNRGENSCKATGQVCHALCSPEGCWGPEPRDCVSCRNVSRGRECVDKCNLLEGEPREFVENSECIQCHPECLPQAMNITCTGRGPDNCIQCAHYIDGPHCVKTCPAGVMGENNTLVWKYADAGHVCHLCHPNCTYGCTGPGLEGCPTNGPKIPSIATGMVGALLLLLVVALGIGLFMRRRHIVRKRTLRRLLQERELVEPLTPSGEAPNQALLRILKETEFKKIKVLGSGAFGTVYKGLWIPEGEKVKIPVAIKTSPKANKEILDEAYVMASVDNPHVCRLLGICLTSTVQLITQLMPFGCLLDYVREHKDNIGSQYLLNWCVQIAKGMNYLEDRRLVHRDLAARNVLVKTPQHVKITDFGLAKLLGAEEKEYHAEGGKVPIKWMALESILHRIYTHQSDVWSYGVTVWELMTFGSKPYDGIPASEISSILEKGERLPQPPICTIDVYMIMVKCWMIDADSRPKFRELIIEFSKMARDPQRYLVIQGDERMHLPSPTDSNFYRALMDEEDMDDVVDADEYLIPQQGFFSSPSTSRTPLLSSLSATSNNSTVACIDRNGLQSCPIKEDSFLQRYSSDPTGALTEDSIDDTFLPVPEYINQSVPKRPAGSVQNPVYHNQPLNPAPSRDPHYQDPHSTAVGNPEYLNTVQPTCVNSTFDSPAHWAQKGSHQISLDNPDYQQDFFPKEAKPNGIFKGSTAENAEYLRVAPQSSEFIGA
Description: Cancer cells were planted in 12-well-plate at the density of 0.15 million cells per well with 1 mL RPMI1640 completed culture medium. Compounds with different concentrations (DMSO as a solution system, and 1 μL of compounds of different concentrations was added to 1 mL of the cell culture medium) were added to the cells planted one day before. 16 hours after treated, the medium was discarded and the cells were washed with precooled PBS. The cells were placed on ice and treated with RIPA protein lysis buffer containing halt protease and phosphatase inhibitor. After centrifugation at 10000 rpm at 4° C. for 10 minutes, the supernatant was collected. The same amount of proteins were added into 4×SDS loading buffer and heated at 95° C. for 5 minutes for denaturation, and the samples were stored at −20° C. after denaturation, or directly conducted protein electrophoresis. The 4-20% gradient preformed Electrophoretic gels were purchased from Kingsy. The electrophoresis tank and related components were purchased from Bio-rad company, and the electrophoresis condition was isobaric 120V for 2 hours. […]
The degradation efficacy of the dacomitinib-based compounds on EGFR was determined in HCC827 and H1975 cell lines, which harboring EGFR Exon 19del and EGFR L858R+T790M mutations respectively. […]
The subject of assay [6] is BT474 cells (HER2 positive breast cancer cells). The assay can be described thus: Cell viability assay (CCK8), BT474 cells. The note with it: for IC50: Homo sapiens, BT-474, Table 10, BT474, 72 hours, read-out: IC50 (half inhibitory concentration). The method, boiled down: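 HER2-overexpressing BT474 cells in RPMI1640 were exposed to compounds for 72 hours over 10 concentrations (3-fold dilution, top 10 μM). Viability was measured with CCK8 reagent against a DMSO control, and IC50 was taken from growth inhibition curves.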

For assay [7], the target named is T1, EGFR (L858R+T790M) in H1975 cells (Homo sapiens, UniProt P00533, L858R/T790M).
T1 construct: determined in H1975 cells with the EGFR L858R+T790M mutation; endogenous in cells; host or cells: H1975
T1 sequence (P00533 25-1210 T790M/L858R): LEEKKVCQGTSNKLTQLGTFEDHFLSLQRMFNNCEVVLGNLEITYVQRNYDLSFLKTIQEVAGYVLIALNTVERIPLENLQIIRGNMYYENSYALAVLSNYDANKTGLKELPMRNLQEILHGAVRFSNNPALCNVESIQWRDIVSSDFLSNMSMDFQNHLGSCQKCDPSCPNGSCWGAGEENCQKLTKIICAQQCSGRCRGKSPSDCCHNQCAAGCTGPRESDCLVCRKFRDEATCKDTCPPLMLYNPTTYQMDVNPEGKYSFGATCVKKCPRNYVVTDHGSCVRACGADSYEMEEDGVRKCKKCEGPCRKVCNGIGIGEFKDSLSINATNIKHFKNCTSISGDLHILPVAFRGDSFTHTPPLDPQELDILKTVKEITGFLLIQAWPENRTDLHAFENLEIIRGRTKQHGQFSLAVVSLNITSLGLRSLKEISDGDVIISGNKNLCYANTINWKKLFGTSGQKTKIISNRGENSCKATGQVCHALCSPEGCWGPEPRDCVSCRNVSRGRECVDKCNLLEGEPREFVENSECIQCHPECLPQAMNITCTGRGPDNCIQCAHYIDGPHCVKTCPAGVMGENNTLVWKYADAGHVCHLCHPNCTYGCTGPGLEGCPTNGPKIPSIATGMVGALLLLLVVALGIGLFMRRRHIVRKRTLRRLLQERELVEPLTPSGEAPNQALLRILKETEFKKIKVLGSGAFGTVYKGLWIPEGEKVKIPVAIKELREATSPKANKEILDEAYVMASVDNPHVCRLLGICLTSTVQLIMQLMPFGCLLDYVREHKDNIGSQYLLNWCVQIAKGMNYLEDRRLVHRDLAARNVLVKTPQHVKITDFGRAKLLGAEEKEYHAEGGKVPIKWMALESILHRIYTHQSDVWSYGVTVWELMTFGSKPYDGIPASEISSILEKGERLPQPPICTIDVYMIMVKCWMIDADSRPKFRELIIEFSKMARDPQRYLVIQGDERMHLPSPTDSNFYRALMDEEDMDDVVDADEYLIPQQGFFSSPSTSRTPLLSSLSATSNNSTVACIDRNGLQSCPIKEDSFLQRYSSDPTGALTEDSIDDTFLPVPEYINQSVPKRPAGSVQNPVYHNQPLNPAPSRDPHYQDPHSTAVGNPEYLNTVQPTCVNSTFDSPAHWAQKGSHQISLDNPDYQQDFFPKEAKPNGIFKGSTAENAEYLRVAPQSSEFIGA
Description: Western blot of EGFR protein level (degradation), H1975 cells. The conditions noted are these: H1975 cells, 1, 10, 50, 100, 500 nM, 16 hours. The procedure: Cancer cells were planted in 12-well-plate at the density of 0.15 million cells per well with 1 mL RPMI1640 completed culture medium. Compounds with different concentrations (DMSO as a solution system, and 1 μL of compounds of different concentrations was added to 1 mL of the cell culture medium) were added to the cells planted one day before. 16 hours after treated, the medium was discarded and the cells were washed with precooled PBS. The cells were placed on ice and treated with RIPA protein lysis buffer containing halt protease and phosphatase inhibitor. After centrifugation at 10000 rpm at 4° C. for 10 minutes, the supernatant was collected. The same amount of proteins were added into 4×SDS loading buffer and heated at 95° C. for 5 minutes for denaturation, and the samples were stored at −20° C. after denaturation, or directly conducted protein electrophoresis. The 4-20% gradient preformed Electrophoretic gels were purchased from Kingsy. The electrophoresis tank and related components were purchased from Bio-rad company, and the electrophoresis condition was isobaric 120V for 2 hours. PVDF membrane was used for the transmembrane, and the whole transmembrane process was carried out on ice with a constant current of 0.4 amperes for an hour. The membrane was blocked with 5% skimmed milk dilution with TBST buffer. Refer to the corresponding antibody instructions for the specific steps of immunoblotting.
The degradation efficacy of the dacomitinib-based compounds on EGFR was determined in HCC827 and H1975 cell lines, which harboring EGFR Exon 19del and EGFR L858R+T790M mutations respectively.
In FIG. 2, concentration-dependent degradation assays were performed on non-small cell lung cancer cell line H1975 (T790M-mutant cell line, the most common mutation type of first-generation EGFR inhibitors). […] The DC50 of compounds SIAIS262032 and SIAIS262037 are both about 50 nM, which provides great potential for drug development to overcome drug resistance caused by EGFR T790M mutation.
The degradation efficacy of the canertinib-based compounds on EGFR was determined in H1975 cells with the EGFR L858R+T790M mutation.
The H1975 cells were treated with the PROTADs with different concentrations (1, 10, 50, 100, 500 nM) for 16 hours, and then the western blot assay was taken to estimate the EGFR levels of the cell lysates in each group. […] The DC50 of SIAIS262125 and SIAIS262182 are both less than 10 nM, much better than canertinib, which provides great potential for drug development to overcome drug resistance caused by EGFR T790M mutation.

Where [8] appears, read: PC9Brac1 (Ex19del + T790M), 72 hours, WST.
Setting [9] is: Table 6, canertinib-based compounds, WST.
Where [10] appears, read: Table 7, canertinib-based compounds.
[11] abbreviates: Table 7, canertinib-based compounds, PC9Brca1 (Ex19del + T790M).

Regarding `COc1cc2ncnc(Nc3ccc(F)c(Cl)c3)c2cc1NC(=O)/C=C/CN1CCCCC1` [dacomitinib, reference compound], the IC50 in assay [1] (WST (CCK8)) is 0.5 nM; in assay [2] (WST (CCK8)), 0.4 nM; in assay [3] (72 hours, WST), 834 nM; in assay [4] (setting [8]) it was 674 nM. In addition, the “EGFR degradation (EGFR level, western blot)” value (shortened to “EGFR degradation”) in assay [5] is listed as “couldn't degrade EGFR”.
With `C=CC(=O)Nc1cc2c(Nc3ccc(F)c(Cl)c3)ncnc2cc1OCCCN1CCN(C(=O)CCCCCNc2cccc3c2C(=O)N(C2CCC(=O)NC2=O)C3=O)CC1` (stereo not drawn) [SIAIS262125, N-(4-((3-chloro-4-fluorophenyl)amino)-7-(3-(4-(6-((2-(2,6-dioxopiperidin-3-yl)-1,3-dioxoisoindolin-4-yl)amino)hexanoyl)piperazin-1-yl)propoxy)quinazolin-6-yl)acrylamide], the IC50 was 0.3 nM in assay [1] (WST (CCK8)); 0.3 nM in assay [1] (setting [9]); 1.3 nM in assay [2] (setting [9]); below 25 nM in assay [3] (72 hours, WST); 15 nM in assay [3] (setting [10]); 79 nM in assay [4] (setting [11]). Further, in assay [6], the IC50 was found to be 9.6 nM. Besides, the “antineoplastic activity (in words)” value in assay [6] (BT474 cells, 72 hours) is recorded as “better antineoplastic activity than the relative EGFR TKIs”. Also, the “EGFR degradation” value in assay [7] is on record as “obvious EGFR degradation efficacy”.
Regarding `C=CC(=O)Nc1cc2c(Nc3ccc(F)c(Cl)c3)ncnc2cc1OCCCN1CCN(CCCCCCNc2cccc3c2C(=O)N(C2CCC(=O)NC2=O)C3=O)CC1` (stereo not drawn) [SIAIS262182, N-(4-((3-chloro-4-fluorophenyl)amino)-7-(3-(4-(6-((2-(2,6-dioxopiperidin-3-yl)-1,3-dioxoisoindolin-4-yl)amino)hexyl)piperazin-1-yl)propoxy)quinazolin-6-yl)acrylamide], the IC50 was 1.4 nM in assay [1] (setting [9]); 11.1 nM in assay [2] (setting [9]); below 25 nM in assay [3] (72 hours, WST); 12 nM in assay [3] (setting [10]); 192 nM in assay [4] (setting [11]); 5 nM in assay [6]. For the same molecule, in assay [7], the “EGFR degradation” value is listed as “obvious EGFR degradation efficacy”.
With `COc1cc2ncnc(Nc3ccc(F)c(Cl)c3)c2cc1NC(=O)/C=C/CN1CCC(N2CCN(C(=O)CCCCCSc3cccc4c3CN(C3CCC(=O)NC3=O)C4=O)CC2)CC1` (stereo not drawn) [SIAIS262035, (E)-N-(4-((3-chloro-4-fluorophenyl)amino)-7-methoxyquinazolin-6-yl)-4-(4-(4-(6-((2-(2,6-dioxopiperidin-3-yl)-1-oxoisoindolin-4-yl)thio)hexanoyl)piperazin-1-yl)piperidin-1-yl)but-2-enamide], the IC50 in assay [1] (WST (CCK8)) is 2.2 nM; in assay [2] (WST (CCK8)), 6.1 nM; in assay [3] (72 hours, WST), 514 nM; in assay [4] (setting [8]), 491 nM; in assay [6] it was 2.1 nM. The “EGFR degradation” value in assay [7] is on record as “obvious EGFR degradation efficacy”.
For `C=CC(=O)Nc1cc2c(Nc3ccc(F)c(Cl)c3)ncnc2cc1OCCCN1CCC(N2CCN(CCCCCCSc3cccc4c3CN(C3CCC(=O)NC3=O)C4=O)CC2)CC1` (stereo not drawn) [SIAIS262180, N-(4-((3-chloro-4-fluorophenyl)amino)-7-(3-(4-(4-(6-((2-(2,6-dioxopiperidin-3-yl)-1-oxoisoindolin-4-yl)thio)hexyl)piperazin-1-yl)piperidin-1-yl)propoxy)quinazolin-6-yl)acrylamide], the IC50 in assay [1] (setting [9]) amounted to 4.2 nM; in assay [2] (setting [9]) it was 10.2 nM; in assay [3] (setting [10]), 24 nM; in assay [4] (setting [11]) it was 570 nM; in assay [6], 4.4 nM. Besides, the “EGFR degradation” value in assay [7] was “obvious EGFR degradation efficacy”.
